Experiments:
[1] = Ratio of drug level in brain to blood in complete Freund's adjuvant-induced rat inflammatory pain model at 2 mg/kg, po after 1 hr; assay type: ADME, organism-based; parameters: dose 2 mg/kg, route oral
[2] = Ratio of drug level in brain to blood in complete Freund's adjuvant-induced rat inflammatory pain model at 10 mg/kg, po after 1 hr; assay type: ADME, organism-based; parameters: dose 10 mg/kg, route oral
[3] = Drug level in blood of sub-chronic rat joint pain efficacy model satellite animal group at 5 mg/kg bid measured on day 5 after 1 hr post dose; assay type: ADME, organism-based; parameters: dose 5 mg/kg; conditions: read-out: Drug uptake
[4] = Drug level in brain of sub-chronic rat joint pain efficacy satellite animal group model at 5 mg/kg bid measured on day 5 after 1 hr post dose; assay type: ADME, organism-based; parameters: dose 5 mg/kg; conditions: read-out: Drug uptake
[5] = Drug level in brain of sub-chronic rat joint pain efficacy model satellite animal group at 20 mg/kg bid measured on day 5 after 1 hr post dose; assay type: ADME, organism-based; parameters: dose 20 mg/kg; conditions: read-out: Drug uptake
[6] = Ratio of drug level in brain to blood of sub-chronic rat joint pain efficacy model satellite animal group at 5 mg/kg bid measured on day 5; assay type: ADME, organism-based; parameters: dose 5 mg/kg
[7] = Ratio of drug level in brain to blood of sub-chronic rat joint pain efficacy model satellite animal group at 20 mg/kg bid measured on day 5; assay type: ADME, organism-based; parameters: dose 20 mg/kg
[8] = target: T1, Prostaglandin E2 receptor EP3 subtype (Homo sapiens, UniProt P43115); test: Activity at EP3 receptor by FLIPR method
T1 sequence (P43115 whole entry): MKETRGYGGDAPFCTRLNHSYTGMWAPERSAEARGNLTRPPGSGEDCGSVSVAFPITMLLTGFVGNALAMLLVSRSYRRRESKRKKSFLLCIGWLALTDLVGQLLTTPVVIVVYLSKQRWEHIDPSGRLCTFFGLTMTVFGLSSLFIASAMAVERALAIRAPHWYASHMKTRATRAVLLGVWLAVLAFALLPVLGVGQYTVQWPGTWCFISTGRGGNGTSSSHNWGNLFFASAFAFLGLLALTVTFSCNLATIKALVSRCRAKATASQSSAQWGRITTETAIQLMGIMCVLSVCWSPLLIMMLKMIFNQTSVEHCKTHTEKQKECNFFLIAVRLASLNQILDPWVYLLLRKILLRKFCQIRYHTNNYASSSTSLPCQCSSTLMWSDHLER

Thromboxane A2 receptor = target: T2, Thromboxane A2 receptor (Homo sapiens, UniProt P21731); test: Activity at TP receptor by FLIPR method
T2 sequence (P21731 whole entry): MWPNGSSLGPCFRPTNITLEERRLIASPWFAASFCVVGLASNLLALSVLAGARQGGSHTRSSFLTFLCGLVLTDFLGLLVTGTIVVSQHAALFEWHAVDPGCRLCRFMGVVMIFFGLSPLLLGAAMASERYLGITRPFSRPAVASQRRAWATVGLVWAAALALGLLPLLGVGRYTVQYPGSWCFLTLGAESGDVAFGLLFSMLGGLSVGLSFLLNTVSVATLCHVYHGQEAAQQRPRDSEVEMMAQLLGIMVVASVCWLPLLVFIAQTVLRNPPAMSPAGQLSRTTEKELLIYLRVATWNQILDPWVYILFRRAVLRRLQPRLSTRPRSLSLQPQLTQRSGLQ

[9] = target: Prostaglandin F2-alpha receptor (Homo sapiens, UniProt P43088); test: Activity at PGF2alpha receptor by FLIPR method
Sequence of Prostaglandin F2-alpha receptor (P43088 whole entry): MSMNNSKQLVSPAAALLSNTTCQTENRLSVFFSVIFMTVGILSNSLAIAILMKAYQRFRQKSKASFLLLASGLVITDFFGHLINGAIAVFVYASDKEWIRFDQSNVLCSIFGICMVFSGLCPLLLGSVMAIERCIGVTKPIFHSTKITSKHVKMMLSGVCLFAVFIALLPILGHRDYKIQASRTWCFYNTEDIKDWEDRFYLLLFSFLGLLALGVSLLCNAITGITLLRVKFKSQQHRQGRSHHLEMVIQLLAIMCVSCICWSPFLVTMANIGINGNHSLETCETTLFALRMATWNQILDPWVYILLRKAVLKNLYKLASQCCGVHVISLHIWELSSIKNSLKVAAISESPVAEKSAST

[10] = Lipophilicity, log D at pH 7.4; assay type: physicochemical; conditions: buffer
[11] = target: T3, Prostaglandin E2 receptor EP1 subtype (Rattus norvegicus, UniProt P70597); test: Binding affinity to rat EP1 receptor
T3 sequence (P70597 whole entry): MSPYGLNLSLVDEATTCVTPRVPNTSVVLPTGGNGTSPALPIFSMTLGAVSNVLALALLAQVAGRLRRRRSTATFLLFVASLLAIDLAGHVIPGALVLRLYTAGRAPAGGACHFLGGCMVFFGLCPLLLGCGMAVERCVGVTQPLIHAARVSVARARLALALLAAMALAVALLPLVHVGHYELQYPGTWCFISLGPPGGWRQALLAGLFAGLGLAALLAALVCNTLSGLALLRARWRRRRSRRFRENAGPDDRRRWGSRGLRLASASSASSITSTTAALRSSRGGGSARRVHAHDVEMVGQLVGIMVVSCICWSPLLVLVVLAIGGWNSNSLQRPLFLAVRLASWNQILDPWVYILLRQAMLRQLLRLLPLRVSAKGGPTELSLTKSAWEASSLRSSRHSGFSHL

[12] = Partition ratio of fraction unbound in rat brain to blood; assay type: ADME, tissue-based
[13] = Aqueous solubility in water after 24 hrs; assay type: physicochemical
[14] = Solubility in simulated gastric fluid after 24 hrs; assay type: physicochemical
[15] = Solubility in fasted state simulated intestinal fluid after 24 hrs; assay type: physicochemical
[16] = Solubility in fed state simulated intestinal fluid after 2 hrs; assay type: physicochemical
[17] = Oral bioavailability in rat at 3 mg/kg; assay type: ADME, organism-based; conditions: in vivo
[18] = Metabolic stability assessed as intrinsic clearance per gram of monkey liver microsomes; assay type: ADME, Macaca mulatta, Microsome; conditions: rhesus monkey
[19] = Ratio of drug level in brain to blood in mouse at 3 mg/kg, po after 0.5 hr; assay type: ADME, organism-based; parameters: dose 3 mg/kg, route oral
[20] = Drug level in rat blood at 0.28 mg/kg/hr, iv for 18 hrs; assay type: ADME, organism-based; parameters: route intravenous; conditions: read-out: Drug uptake
[21] = Ratio of drug level in brain to blood in rat at 0.28 mg/kg/hr, iv for 18 hrs; assay type: ADME, organism-based; parameters: route intravenous
[22] = Drug level in blood of complete Freund's adjuvant-induced rat inflammatory pain model at 1 mg/kg, po after 1 hr; assay type: ADME, organism-based; parameters: dose 1 mg/kg, route oral; conditions: read-out: Drug uptake
[23] = Drug level in blood of complete Freund's adjuvant-induced rat inflammatory pain model at 2 mg/kg, po after 1 hr; assay type: ADME, organism-based; parameters: dose 2 mg/kg, route oral; conditions: read-out: Drug uptake
[24] = Drug level in blood of complete Freund's adjuvant-induced rat inflammatory pain model at 3 mg/kg, po after 1 hr; assay type: ADME, organism-based; parameters: dose 3 mg/kg, route oral; conditions: read-out: Drug uptake
[25] = Drug level in blood of sub-chronic rat joint pain efficacy model treatment group at 20 mg/kg bid measured on day 5 after 1 hr post dose; assay type: ADME, organism-based; parameters: dose 20 mg/kg; conditions: read-out: Drug uptake
[26] = Ratio of drug level in brain to blood of sub-chronic rat joint pain efficacy model treatment group at 5 mg/kg bid measured on day 5 after 1 hr post dose; assay type: ADME, organism-based; parameters: dose 5 mg/kg
[27] = target: T4, Peroxisome proliferator-activated receptor alpha (Homo sapiens, UniProt Q07869); test: Binding affinity to PPARalpha
T4 sequence (Q07869 whole entry): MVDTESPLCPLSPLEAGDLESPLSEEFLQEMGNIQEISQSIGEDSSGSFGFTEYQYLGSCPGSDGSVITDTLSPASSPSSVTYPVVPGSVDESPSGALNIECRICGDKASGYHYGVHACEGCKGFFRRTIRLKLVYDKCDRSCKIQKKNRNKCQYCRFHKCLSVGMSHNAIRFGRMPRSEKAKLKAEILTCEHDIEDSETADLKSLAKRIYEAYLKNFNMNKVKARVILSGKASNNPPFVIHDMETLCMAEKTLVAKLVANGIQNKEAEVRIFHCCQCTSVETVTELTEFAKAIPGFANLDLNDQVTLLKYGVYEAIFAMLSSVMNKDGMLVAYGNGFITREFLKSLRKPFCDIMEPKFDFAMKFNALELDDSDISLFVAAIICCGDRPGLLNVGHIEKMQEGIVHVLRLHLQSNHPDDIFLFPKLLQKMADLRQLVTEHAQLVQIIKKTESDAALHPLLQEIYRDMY

[28] = Fraction unbound in rat brain

Compound CC(C)COc1ccc(Cl)cc1-c1ccccc1-c1cccc(C(=O)[O-])n1.[Na+] has a Kp at 1 h [1] of 0.22, a Kp at 1 h [2] of 0.48 and a concentration at 1 h [3] of 1660 nM. For the same compound, the concentration at 1 h [4] was 822 nM, the concentration at 1 h [5] was 3630 nM and the Kp at 5 day [6] was 0.54. The Kp at 5 day [7] was 0.5, the Ki [8] was 2000 nM and the IC50 (Thromboxane A2 receptor) was 1580 nM. For the same compound, the IC50 [9] was greater than 10000 nM, the logD [10] was 1.9 and the IC50 [11] was 12.6 nM. It also gave a Kbb [12] of 0.93, a solubility at 24 h [13] of 612 µg/mL and a solubility at 24 h [14] of 11 µg/mL. For the same compound, the solubility at 24 h [15] was 1050 µg/mL, the solubility at 2 h [16] was 1220 µg/mL and the bioavailability [17] was 95%. For the same compound, the CL [18] was 8 mL/min/g, the Kp at 0.5 h [19] was 0.24 and the concentration at 18 h [20] was 1660 nM. The Kp at 18 h [21] was 0.33, the concentration at 1 h [22] was 948 nM and the concentration at 1 h [23] was 2140 nM. For the same compound, the concentration at 1 h [24] was 3330 nM, the concentration at 1 h [25] was 5530 nM and the Kp at 1 h [26] was 0.57. It also gave a Ki [27] greater than 20000 nM and a Fu [28] of 0.53%.

Source: ChEMBL document CHEMBL1154508, “Discovery of GSK345931A: An EP(1) receptor antagonist with efficacy in preclinical models of inflammatory pain” (Bioorg Med Chem Lett, 2009)
